In EP0091519A1, “Topical acylaminophenols” (Johnson & Johnson Products Inc., priority 1982, dated 1983):

Key:
[1] = test system: arachidonic acid-induced erythema; assay: Arachidonic acid-induced erythema in guinea pig ear skin (subjective score 0 to 3, area under response curve); type: in vivo; settings: for Total Erythema: area under curve of average erythema score (0 to 3) over four days; for inhibition in vivo at 1 %: Cavia porcellus, versus contralateral vehicle-treated ear, read-out: % Re-duction (Total Erythema); for effect on AA-induced erythema (in words): topical application, 1% unless otherwise stated
Method: (§1) The effect of selected compositions on cutaneous inflammation caused by topical application of arachidonic acid was evaluated. In addition to inflammation, the proliferative response of the epidermis treated with arachidonic acid and the compositions was evaluated. Fourteen acylaminophenols were studied. The drugs were dissolved in propylene glycol plus ethanol (30:70) and were used at 1% concentrations unless otherwise stated. Fourteen groups of five guinea pigs each served as the experimental subjects. The dorsal skin of both ears was treated once daily for four days (9:00 am) with 25 µl 1% solution of AA in propylene glycol/ethanol (30/70). Immediately after this application, one ear of each guinea pig was randomly chosen for application of 25 µl of the test compound, while the contralateral ear received the vehicle, alone. During the four-day experimental period, DNA synthesized was labeled by continuous administration of a radioactive'precursor, ^3H-thymidine (3 i.p. injections/day of 10µCi each). Erythema developing in response to topical AA was measured daily on a subjective scale of 0 to 3; where 0 = none,1= mild, 2 = moderate, and 3 = intense. The average erythema scores were plotted as a function of time, and areas under the response curves were determined for expression of total erythema. On the fifth day, animals were killed and six mm diameter circular samples of dorsal skin from the central portion of the treatment sites were harvested and solubilized in NCS® solubilizer. These tissue solutions were acidified and a simple fluor (diphenyloxazole in toluene) was added for determination of radioactivity by liquid scintillation counting. Radioactivity expressed as counts-per-minute (cpm) correlate with the amount of proliferative activity in the epidermis.

[2] = test system: arachidonic acid-induced epidermal proliferation; assay: Arachidonic acid-induced epidermal proliferation in guinea pig ear skin (3H-thymidine labelling, liquid scintillation counting); type: in vivo; settings: for cpm S.E.: 25 µl topical on ear once daily for four days after 1% AA, mean ± S.E.; for inhibition in vivo at 1 %: Cavia porcellus, 1% drug topical, versus contralateral vehicle-treated ear, * statistically significant, + not significant due to variability, read-out: % Re-duction (cpm, proliferation); for effect on AA-induced proliferation (in words): topical application, 1% unless otherwise stated
Method: as §1

[3] = 1% drug in propylene glycol/ethanol (30:70), 6 mm skin sample on fifth day

| SMILES | Total Erythema ([1]; 1% drug topical) | inhibition in vivo at 1 % ([1]; 1% drug topical) [%] | effect on AA-induced erythema (in words) [1] | cpm S.E. [2, 3] [cpm] | inhibition in vivo at 1 % [2] [%] | effect on AA-induced proliferation (in words) [2] | Total Erythema ([1]; 0.56% drug topical) | cpm S.E. ([2]; 0.56% drug in propylene glycol/ethanol (30:70)) [cpm] |
| --- | --- | --- | --- | --- | --- | --- | --- | --- |
| O=C(Nc1ccc(O)cc1)c1ccccc1O | 3.2 | 41.8 | showed activity | 1532± 91 | 23.3 | showed activity |  |  |
| O=C(Nc1ccc(O)cc1)c1ccccc1 [4-benzoylaminophenol, reference compound] | 3.8 | 20.8 | inactive | 2214±316 | 4.2 | inactive |  |  |
| CCCC(=O)Nc1ccc(O)cc1 [4-n-butyroylaminophenol, reference compound] | 4.6 | 4.2 | without effect | 2680±360 | 27.8 | significantly inhibited |  |  |
| CCCCCCCCCC(=O)Nc1ccc(O)cc1 [4-n-decanoylaminophenol] | 2.0 | 47.4 | good activity | 1311± 48 | 37.5 | good activity |  |  |
| CCCCCCCCCCCC(=O)Nc1ccc(O)cc1 [4-n-dodecanoylaminophenol] | 3.8 | 29 | good activity | 2487±368 | 29 | good activity |  |  |
| CCCCCCC(=O)Nc1ccc(O)cc1 [4-n-heptanoylaminophenol] | 1.8 | 47 | good activity | 1435± 77 | 27.3 | good activity |  |  |
| CCCCCCCCCCCCCCCC(=O)Nc1ccc(O)cc1 [4-n-hexadecanoylaminophenol, reference compound] |  |  | without substantial effect |  |  | without substantial effect | 4.8 | 3275±463 |
| CCCCCC(=O)Nc1ccc(O)cc1 [4-n-hexanoylaminophenol] | 1.9 | 50 | good activity | 1488±104 | 28.3 | good activity |  |  |
| CCCCCCCCC(=O)Nc1ccc(O)cc1 [4-n-nonanoylaminophenol] | 2.1 | 34.4 | good activity | 1472±135 | 20.9 | good activity |  |  |
| CCCCCCCC(=O)Nc1ccc(O)cc1 [4-n-octanoylaminophenol] | 2.7 | 49 | good activity | 1589±361 | 39.1 | good activity |  |  |
| CCCCCCCCCCCCCC(=O)Nc1ccc(O)cc1 [4-n-tetradecanoylaminophenol, reference compound] | 3.8 | 0 | without substantial effect | 1681±296 | 15.1 | without substantial effect |  |  |
| CCCCCCCCCCC(=O)Nc1ccc(O)cc1 [4-n-undecanoylaminophenol] | 2.1 | 38.2 | good activity | 1380±205 | 37.3 | good activity |  |  |
| CCC(=O)Nc1ccc(O)cc1 [4-propionylaminophenol, reference compound] | 5.5 | -14.6 | without substantial effect | 1777±251 | 2.6 | without substantial effect |  |  |
| CC(=O)Nc1ccc(O)cc1 [Acetaminophen, acetamidophenol, reference compound] | 5.2 | 0 | no significant effect | 3140±346 | 8 | no significant effect |  |  |
